From patent publication US8394971B2, “Indole derivatives as selective androgen receptor modulators (SARMS)” (Janssen Pharmaceutica N.V., priority 2004, dated 2013)
Where “and” joins values, the source holds several entries; their conditions need not be identical. Equal entries are not always repeated. Where two headings read alike, the source gives them in different places.

Key:
[1] = target: T1, androgen receptor (rat ventral prostate cytosol) (Rattus norvegicus, UniProt P15207); experiment: Androgen Receptor Binding Using Rat Ventral Prostate Cytosol; conditions: for % Inhibition: 1 µM
T1 construct: from tissue; host or cells: ventral prostate of castrated male Sprague Dawley or Wistar rats, cytosol
T1 sequence (P15207 1-902): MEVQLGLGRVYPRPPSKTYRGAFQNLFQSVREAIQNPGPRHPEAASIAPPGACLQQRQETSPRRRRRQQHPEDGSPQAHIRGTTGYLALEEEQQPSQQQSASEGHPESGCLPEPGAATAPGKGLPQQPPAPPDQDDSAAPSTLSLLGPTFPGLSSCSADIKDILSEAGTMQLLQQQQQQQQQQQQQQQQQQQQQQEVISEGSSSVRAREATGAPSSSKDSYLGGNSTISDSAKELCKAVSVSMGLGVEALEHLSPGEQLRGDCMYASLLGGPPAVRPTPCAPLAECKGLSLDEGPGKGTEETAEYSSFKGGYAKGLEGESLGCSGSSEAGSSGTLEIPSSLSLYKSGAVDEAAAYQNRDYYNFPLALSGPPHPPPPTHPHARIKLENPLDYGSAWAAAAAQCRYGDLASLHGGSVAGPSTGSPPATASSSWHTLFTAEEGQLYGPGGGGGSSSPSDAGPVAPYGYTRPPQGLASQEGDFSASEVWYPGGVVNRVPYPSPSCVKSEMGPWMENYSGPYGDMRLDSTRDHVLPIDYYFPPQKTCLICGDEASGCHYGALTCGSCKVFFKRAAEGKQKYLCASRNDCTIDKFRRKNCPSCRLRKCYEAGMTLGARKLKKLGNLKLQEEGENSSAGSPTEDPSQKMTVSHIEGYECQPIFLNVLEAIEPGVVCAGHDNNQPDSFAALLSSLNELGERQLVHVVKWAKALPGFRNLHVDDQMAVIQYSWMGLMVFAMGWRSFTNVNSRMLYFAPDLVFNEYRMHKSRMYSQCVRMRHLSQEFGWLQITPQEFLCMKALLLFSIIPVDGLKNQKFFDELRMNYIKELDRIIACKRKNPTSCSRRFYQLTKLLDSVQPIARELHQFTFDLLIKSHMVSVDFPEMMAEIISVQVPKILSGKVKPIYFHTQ
Procedure: The assay was run on a 96 well plate with each well filled with a total reaction volume 150 μL, of a solution containing 5 pmol androgen receptor LBD (Panvera) or 30 μL of freshly prepared rat cytosol, 0.5 nM [^3H] […] (TED buffer contains 10 mM Tris.HCl pH 7.4, 1 mM sodium molybdate, 1.5 mM EDTA, 1 mM DTT and 10% (v/v) glycerol.)
On day one, the solution containing receptor, tracer and TED buffer was distributed into a 96 well plate. Diluted test compound or control vehicle was then added to individual wells and the plate incubated at 4° C. overnight.
On day two, to each well was then added 20 μL human γ-globulin (ICN 823102), prepared at 25 mg/ml in TE pH 8.0, and 55 μL 40% polyethylene glycol 8000 (JT Baker U222-08), prepared in TE pH 8.0. The plate was incubated at 4° C. for 60 minutes. During incubation, the harvester was rinsed with 10% PEG 8000, prepared in TE pH 8.0, and a GF/C Unifilter-96 was pre-wet with 10% PEG. The binding reaction was filtered, the retentate was washed three times with 10% PEG and dried under vacuum for a couple of minutes, then dried at 50° C. for 5 min and the plate was bottom sealed. Next, 25 μL of Microscint-20 (Packard) was added to the filter wells and the plate was top sealed. The plate wells were then counted on a TopCount (Packard).
Rat Prostate Cytosol Preparation:
Male Sprague Dawley or Wistar rats (Charles River, 200-300 g) were used for each preparation. The day before preparing the cytosol, the rats were castrated using standard surgical procedures.
The rats were euthanized by carbon dioxide asphyxiation. The rat prostates were quickly removed and placed on ice in pre-chilled, pre-weighed 50 mL plastic tubes. No more than five prostates were placed into one tube. The tubes were then weighed and the prostate tissue wet weights calculated.
To the chilled prostate tissue was then added […] of chilled homogenization buffer. The homogenization buffer was freshly prepared by mixing 10 mM Tris.HCl, pH 7.4, 1 mM sodium molybdate, 1.5 mM EDTA, 1 mM dithiothreitol, 10% (v/v) glycerol and 1% protease inhibitor cocktail (Sigma P 8340).
The prostate tissue was homogenized in a cold room using a pre-chilled Polytron PT3000 homogenizer (Brinkmann). Homogenization was performed at a speed setting of 20, three times for 10 sec bursts. The tubes containing the prostate tissue was kept on ice while homogenizing. The homogenate was allowed to rest on ice for 20 sec between bursts.
The homogenate was then placed into pre-chilled 3 mL polycarbonate ultracentrifuge tubes and centrifuged in the TLA-100 rotor of a TL-100 ultracentrifuge for 12 min at 100,000 rpm at 4° C. The resulting supernatant was stored in 1 mL aliquots at −80° C. until needed.
Binding to the androgen receptor was determined according to the protocol described in Example 86 using the above prepared rat cytosol.
% Inhibition was determined by testing dilutions of the test compound (usually duplicates of 10 μM) in the binding assay. Counts per well were measured and percents of inhibition determined. […] Counts per well were measured and IC50s determined by linear regression.

[2] = target: T2, androgen receptor (adenovirus AdEasy+rAR in COS-7 cells) (Rattus norvegicus, UniProt P15207); experiment: COS-7 Whole-Cell Androgen Receptor Binding Assay, Adenovirus Transduction; conditions: COS binding; for inhibition at 3 µM / % Inhibition: 3000 nM unless otherwise noted
T2 construct: expressed in transfected cells
T2 sequence (P15207 1-902): T1 sequence (P15207 1-902)

[3] = target: T3, androgen receptor (adenovirus AdEasy+rAR in L929 cells) (Rattus norvegicus, UniProt P15207); experiment: L929 Androgen Receptor Functional Assay, Adenovirus Transduction; assay type: cell-based; conditions: for % Activity: L929 agonist testing; for inhibition at 3 µM: L929, L929 antagonist testing with R1881
T3 construct: expressed in transfected cells
T3 sequence (P15207 1-902): T1 sequence (P15207 1-902)
In short: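 Luminescent reporter readout after 48 h at 37 °C: rat AR delivered by adenovirus (AdEasy+rAR, moi 1:500) into L929 cells grown without phenol red in charcoal-treated serum. Antagonist wells also received R1881 (2.5× dilution at 2.5 nM).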

[4] = system: testosterone-enhanced ventral prostate and seminal vesicle weights in castrated male Sprague Dawley rats; experiment: Ventral Prostate and Seminal Vesicle Weight In Vivo Assay; design: species or system rat; conditions: immature castrated rats; once daily for five days, usually orally at 40 mg/kg, with testosterone propionate 2 mg/kg s.c.
In short: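 Immature (~50 g) castrated Sprague Dawley rats dosed once daily for five days with compound (usually oral, 40 mg/kg, cyclodextrin or methylcellulose vehicle) plus testosterone propionate 2 mg/kg s.c. Wet ventral prostate and seminal vesicle weights taken on day six; activity judged by prostate weight or body-weight-adjusted % inhibition.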

[5] = rat cytosol, concentration 1000 nM

Row | SMILES | inhibition at 3 µM [2] [%] | % Activity ([3]; 3000 nM) [%] | active / inactive (inhibition of testosterone-enhanced prostate weight) [4] | other results
1 | COc1cccc(CN2CCC(O)(c3cc4cc([N+](=O)[O-])c(C(F)(F)F)cc4[nH]3)CC2)c1 [compound 39] |  |  |  | % Inhibition [1, 5]: 6%; IC50 ([1]; rat cytosol, read-out: IC50): > 6100 nM
2 | Cc1ccc(CN2CCC(O)(c3cc4cc([N+](=O)[O-])c(C(F)(F)F)cc4[nH]3)CC2)cc1 [Compound #42] |  |  |  | % Inhibition [1]: 23%; IC50 ([1]; rat cytosol, read-out: IC50): 7100 nM
3 | O=[N+]([O-])c1cc2cc(C3(O)CCN(Cc4ccc(Cl)cc4)CC3)[nH]c2cc1C(F)(F)F [compound 40] |  |  |  | % Inhibition [1, 5]: −2.5%; IC50 ([1]; rat cytosol, read-out: IC50): 3800 nM
4 | Cc1ccc(CN2CCC(O)(c3cc4cc([N+](=O)[O-])c(C(F)(F)F)cc4[nH]3)CC2)cc1 [compound 27] |  |  |  | IC50 ([1]; rat cytosol, read-out: IC50): 3100 nM
5 | OC1(c2cc3cc(Cl)c(C(F)(F)F)cc3[nH]2)CCN(Cc2ccc(Cl)c(Cl)c2)CC1 [compound 36] |  |  |  | IC50 ([1]; IC50 (nM)): > 100000 nM; inhibition at 1 µM [1, 5]: -34%
6 | COc1cccc(CN2CCC(O)(c3cc4cc(Cl)c(C(F)(F)F)cc4[nH]3)CC2)c1 [compound 29] |  |  |  | inhibition at 1 µM [1, 5]: -1.8%; IC50 ([1]; rat cytosol, read-out: IC50): 4700 nM
7 | CS(=O)(=O)c1ccc(CN2CCC(O)(c3cc4cc(Cl)c(C(F)(F)F)cc4[nH]3)CC2)cc1 [compound 34] |  |  |  | inhibition at 1 µM [1, 5]: 18%; IC50 ([1]; rat cytosol, read-out: IC50): 5700 nM
8 | CC(O)(CSCC(F)(F)F)c1cc2cc(Cl)c(C(F)(F)F)cc2[nH]1 (centres unmarked) [compound 190] | 100 | 1 | active | 
9 | CCC(O)(CS(=O)(=O)CC(F)(F)F)c1cc2cc([N+](=O)[O-])c(C(F)(F)F)cc2[nH]1 (centres unmarked) [compound 191] | 65 | 2 | active | 
10 | CCC(O)(CSCC(F)(F)F)c1cc2cc([N+](=O)[O-])c(C(F)(F)F)cc2[nH]1 (centres unmarked) [compound 185] | 92 | 2 | active | 
11 | CCCSCC(C)(O)c1cc2cc([N+](=O)[O-])c(C(F)(F)F)cc2[nH]1 (centres unmarked) [compound 168] | 60 | 3 | inactive | 
12 | C[S+]([O-])CCC(C)(O)c1cc2cc([N+](=O)[O-])c(C(F)(F)F)cc2[nH]1 (mixture of isomers) [compound 50] |  | 2 | inactive | % Inhibition [2]: 7%
13 | CCCCSCC(C)(O)c1cc2cc([N+](=O)[O-])c(C(F)(F)F)cc2[nH]1 (centres unmarked) [compound 200] | 97 | 1 | inactive | 
14 | CCSCC(C)(O)c1cc2cc(C#N)c(C(F)(F)F)cc2[nH]1 (centres unmarked) [compound 209] | 61 |  | active | % Activity ([3]; @ 8000 nM): −3 @ 8000 nM %
15 | CSCC(C)(O)c1cc2cc([N+](=O)[O-])c(C(F)(F)F)cc2[nH]1 (centres unmarked) [compound 139] | 94 |  | active | % Inhibition [2]: 97%; % Activity ([3]; 3000 nM, 3 µM): 0% and 1%
16 | CC(O)(CSCC(F)(F)F)c1[nH]c2cc(C(F)(F)F)c([N+](=O)[O-])cc2c1I (centres unmarked) [compound 213] | 71 |  | active | % Activity ([3]; @ 8000 nM): −1 @ 8000 nM %
17 | CCSCC(C)(O)c1cc2cc(F)c(C(F)(F)F)cc2[nH]1 (centres unmarked) [compound 159] | 90 | 2 | active | 
18 | CCSCC(C)(O)c1cc2cc(F)c(Cl)cc2[nH]1 (racemic) [compound 206] |  | 5 | active | % Inhibition [2]: −40%
19 | CCSCC(C)(O)c1cc2cc([N+](=O)[O-])c(C(F)(F)F)cc2[nH]1 (racemic) [compound 142] |  |  | active | % Inhibition [2]: 90%; inhibition at 3 µM ([3]; 3000 nM): 78%; % Activity ([3]; 3000 nM, 3 µM): 0%
20 | CCSCC(C)(O)c1cc2cc([N+](=O)[O-])c(C(F)(F)F)cc2n1S(C)(=O)=O (centres unmarked) [compound 141] | 42 | 0 | inactive | 
21 | CCSCC(C)(O)c1cc2cc([N+](=O)[O-])c(C(F)(F)F)cc2n1C (single isomer, unassigned) [compound 231] | 73 |  | active | % Inhibition [2]: 78%; % Activity ([3]; 3000 nM, 3 µM): 0% and −1%
22 | CC[S+]([O-])CC(C)(O)c1[nH]c2cc(C(F)(F)F)c(C#N)cc2c1C (centres unmarked) [compound 252] | 68 | 1 | active | IC50 ([2]; read-out: IC50): > 3 µM; inhibition at 3 µM ([3]; 3000 nM): 65%
23 | CCS(=O)(=O)CC(C)(O)c1[nH]c2cc(C(F)(F)F)c(C#N)cc2c1C (single isomer, unassigned) [Compound #251, 2-(2-Ethanesulfonyl-1-hydroxy-1-methyl-ethyl)-3-methyl-6-trifluoromethyl-1H-indole-5-carbonitrile] |  | −1 | active | % Inhibition [2]: 85%; inhibition at 3 µM ([3]; 3000 nM): 90%
24 | CCS(=O)(=O)C[C@](C)(O)c1cc2cc([N+](=O)[O-])c(C(F)(F)F)cc2[nH]1 [Compound #156, 1-Ethanesulfonyl-2-(5-nitro-6-trifluoromethyl-1H-indol-2-yl)-propan-2-ol] | 42 | 2 | inactive | % Inhibition [2]: 52%
25 | CCC(O)(CSCC(F)(F)F)c1cc2cc(Cl)c(C(F)(F)F)cc2[nH]1 (centres unmarked) [compound 192] | 86 | 8 | active | 
